# Experiments:
# Experiment in all cases: KinomeScan kinase panel
# Format in all cases: binding
# MAP4K2 = molecular target: T1, MAP4K2 (Homo sapiens, UniProt Q12851)
# T1 construct: purchased DiscoveRx Corporation (KinomeScan)
# Outline: (§1)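 The compound was profiled across a 442-kinase KinomeScan binding panel at a fixed concentration of 1000 nM; values reflect inhibitory effect at that one dose.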
# [1] = molecular target: T2, RPS6KA5(kin.Dom.2-C-termimal) (Homo sapiens, UniProt O75582)
# T2 construct: kin.Dom.2; purchased DiscoveRx Corporation
# T2 sequence (O75582 426-687 limits assumed): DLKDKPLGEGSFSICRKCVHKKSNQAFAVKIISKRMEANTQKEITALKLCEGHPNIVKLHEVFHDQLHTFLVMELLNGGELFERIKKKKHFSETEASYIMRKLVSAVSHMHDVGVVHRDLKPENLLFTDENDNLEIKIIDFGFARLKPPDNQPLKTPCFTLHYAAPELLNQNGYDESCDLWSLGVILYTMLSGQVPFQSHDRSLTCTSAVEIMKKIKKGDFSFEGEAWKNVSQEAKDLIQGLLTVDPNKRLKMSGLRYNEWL
# Outline: as §1
# RIPK1 = molecular target: T3, RIPK1 (Homo sapiens, UniProt Q13546)
# T3 construct: purchased DiscoveRx Corporation
# Outline: as §1
# ADCK3 = molecular target: T4, ADCK3 (Homo sapiens, UniProt Q8NI60)
# T4 construct: purchased DiscoveRx Corporation (KinomeScan)
# Outline: as §1
# CIT = molecular target: T5, CIT (Homo sapiens, UniProt O14578)
# T5 construct: purchased DiscoveRx Corporation (KinomeScan)
# Outline: as §1
# [2] = molecular target: T6, ABL1(H396P)-nonphosphorylated (Homo sapiens, UniProt P00519, H396P)
# T6 construct: purchased DiscoveRx Corporation (KinomeScan)
# Outline: as §1
# ANKK1 = molecular target: T7, ANKK1 (Homo sapiens, UniProt Q8NFD2)
# T7 construct: purchased DiscoveRx Corporation (KinomeScan)
# T7 sequence (Q8NFD2 whole entry): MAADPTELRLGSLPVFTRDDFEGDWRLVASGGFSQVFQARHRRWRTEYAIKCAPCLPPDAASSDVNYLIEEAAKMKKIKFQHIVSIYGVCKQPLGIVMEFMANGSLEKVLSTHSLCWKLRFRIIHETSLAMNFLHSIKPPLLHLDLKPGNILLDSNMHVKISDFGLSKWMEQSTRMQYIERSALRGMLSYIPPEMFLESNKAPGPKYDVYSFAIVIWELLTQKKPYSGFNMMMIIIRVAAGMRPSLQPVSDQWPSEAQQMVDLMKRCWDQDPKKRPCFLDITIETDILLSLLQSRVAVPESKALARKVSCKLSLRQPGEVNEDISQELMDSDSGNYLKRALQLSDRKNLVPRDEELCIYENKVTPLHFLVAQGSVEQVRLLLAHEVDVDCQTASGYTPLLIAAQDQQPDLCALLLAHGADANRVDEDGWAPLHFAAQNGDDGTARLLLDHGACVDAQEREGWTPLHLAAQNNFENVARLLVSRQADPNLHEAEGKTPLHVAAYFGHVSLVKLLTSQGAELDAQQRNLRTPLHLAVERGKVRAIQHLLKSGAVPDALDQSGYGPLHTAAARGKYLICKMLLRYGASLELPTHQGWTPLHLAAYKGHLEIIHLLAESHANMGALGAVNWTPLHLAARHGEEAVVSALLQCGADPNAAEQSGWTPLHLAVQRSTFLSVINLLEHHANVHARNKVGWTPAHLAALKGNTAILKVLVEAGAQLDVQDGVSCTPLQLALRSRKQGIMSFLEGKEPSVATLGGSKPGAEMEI
# Outline: as §1
# TAK1 = molecular target: T8, TAK1 (Homo sapiens, UniProt O43318)
# T8 construct: purchased DiscoveRx Corporation (KinomeScan)
# Outline: as §1
# TNIK = molecular target: T9, TNIK (Homo sapiens, UniProt Q9UKE5)
# T9 construct: purchased DiscoveRx Corporation (KinomeScan)
# Outline: as §1
# HIPK3 = molecular target: T10, HIPK3 (Homo sapiens, UniProt Q9H422)
# T10 construct: purchased DiscoveRx Corporation (KinomeScan)
# Outline: as §1
# [3] = molecular target: T11, RSK2(Kin.Dom.1-N-terminal) (Homo sapiens, UniProt P51812)
# T11 construct: Kin.Dom.1; purchased DiscoveRx Corporation (KinomeScan)
# T11 sequence (P51812 68-327 limits assumed): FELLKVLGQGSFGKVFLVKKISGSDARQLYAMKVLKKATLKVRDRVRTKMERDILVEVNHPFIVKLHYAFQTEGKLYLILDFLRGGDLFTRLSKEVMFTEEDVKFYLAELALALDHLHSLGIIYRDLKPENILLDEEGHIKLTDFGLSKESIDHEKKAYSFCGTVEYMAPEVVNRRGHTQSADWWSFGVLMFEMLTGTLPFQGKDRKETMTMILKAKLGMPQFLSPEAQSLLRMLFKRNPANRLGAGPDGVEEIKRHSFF
# Outline: as §1
# [4] = molecular target: T12, RSK4(Kin.Dom.1-N-terminal) (Homo sapiens, UniProt Q9UK32)
# T12 construct: Kin.Dom.1; purchased DiscoveRx Corporation (KinomeScan)
# T12 sequence (Q9UK32 73-330 limits assumed): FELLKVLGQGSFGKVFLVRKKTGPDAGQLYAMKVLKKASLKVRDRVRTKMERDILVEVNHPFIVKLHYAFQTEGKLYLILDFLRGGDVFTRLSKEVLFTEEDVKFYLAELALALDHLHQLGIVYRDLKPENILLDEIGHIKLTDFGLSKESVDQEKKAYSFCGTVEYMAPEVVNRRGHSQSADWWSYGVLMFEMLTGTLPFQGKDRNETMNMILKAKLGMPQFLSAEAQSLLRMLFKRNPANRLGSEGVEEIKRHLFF
# Outline: as §1
# MST1 = molecular target: T13, MST1 (Homo sapiens, UniProt Q13043)
# T13 construct: purchased DiscoveRx Corporation (KinomeScan)
# T13 sequence (Q13043 whole entry): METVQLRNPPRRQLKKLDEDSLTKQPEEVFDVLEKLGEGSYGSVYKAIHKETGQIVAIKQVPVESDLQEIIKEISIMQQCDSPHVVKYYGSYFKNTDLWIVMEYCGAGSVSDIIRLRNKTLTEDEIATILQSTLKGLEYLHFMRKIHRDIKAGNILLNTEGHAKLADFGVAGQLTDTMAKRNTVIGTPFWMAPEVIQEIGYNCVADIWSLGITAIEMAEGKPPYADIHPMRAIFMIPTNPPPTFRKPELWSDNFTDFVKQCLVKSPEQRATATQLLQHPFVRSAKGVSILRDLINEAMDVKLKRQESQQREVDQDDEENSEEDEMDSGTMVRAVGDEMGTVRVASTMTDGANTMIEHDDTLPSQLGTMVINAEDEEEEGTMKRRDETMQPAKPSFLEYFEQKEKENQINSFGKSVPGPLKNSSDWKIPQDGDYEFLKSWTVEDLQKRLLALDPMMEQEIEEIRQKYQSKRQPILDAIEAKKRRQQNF
# Outline: as §1
# YSK4 = molecular target: T14, YSK4 (Homo sapiens, UniProt Q56UN5)
# T14 construct: purchased DiscoveRx Corporation (KinomeScan service)
# Outline: as §1
# MST2 = molecular target: T15, MST2 (Homo sapiens, UniProt Q13188)
# T15 construct: purchased DiscoveRx Corporation (KinomeScan)
# Outline: as §1
# KIT(D816H) = molecular target: T16, KIT(D816H) (Homo sapiens, UniProt P10721, D816H)
# T16 construct: purchased DiscoveRx Corporation (KinomeScan)
# T16 sequence (P10721 26-976 D816H): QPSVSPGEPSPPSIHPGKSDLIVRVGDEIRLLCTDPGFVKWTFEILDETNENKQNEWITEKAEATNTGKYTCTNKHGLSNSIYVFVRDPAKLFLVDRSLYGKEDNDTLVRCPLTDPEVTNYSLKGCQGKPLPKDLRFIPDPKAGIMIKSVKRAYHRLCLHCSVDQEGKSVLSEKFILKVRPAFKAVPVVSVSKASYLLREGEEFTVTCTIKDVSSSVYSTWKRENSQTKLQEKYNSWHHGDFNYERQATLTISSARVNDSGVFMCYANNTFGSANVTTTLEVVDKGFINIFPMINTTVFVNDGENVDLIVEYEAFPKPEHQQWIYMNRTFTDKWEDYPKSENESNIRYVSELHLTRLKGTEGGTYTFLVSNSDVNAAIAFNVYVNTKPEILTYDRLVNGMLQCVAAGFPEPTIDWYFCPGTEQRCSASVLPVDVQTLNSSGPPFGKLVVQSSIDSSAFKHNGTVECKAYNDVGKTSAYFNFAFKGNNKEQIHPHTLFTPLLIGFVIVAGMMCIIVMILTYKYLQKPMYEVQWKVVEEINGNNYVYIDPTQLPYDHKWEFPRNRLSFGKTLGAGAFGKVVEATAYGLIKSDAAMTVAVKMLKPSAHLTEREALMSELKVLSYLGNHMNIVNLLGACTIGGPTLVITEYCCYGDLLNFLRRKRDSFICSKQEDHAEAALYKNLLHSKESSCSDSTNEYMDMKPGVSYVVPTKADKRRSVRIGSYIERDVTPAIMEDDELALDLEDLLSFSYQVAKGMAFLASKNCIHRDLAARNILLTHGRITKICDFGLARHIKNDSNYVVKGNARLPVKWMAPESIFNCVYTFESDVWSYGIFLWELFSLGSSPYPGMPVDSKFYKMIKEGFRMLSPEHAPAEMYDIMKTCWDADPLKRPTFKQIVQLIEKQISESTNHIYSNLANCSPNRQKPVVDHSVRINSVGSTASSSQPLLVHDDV
# Outline: as §1
# AKT1 = molecular target: T17, AKT1 (Homo sapiens, UniProt P31749)
# T17 construct: purchased DiscoveRx Corporation (KinomeScan)
# Outline: as §1
# CLK2 = molecular target: T18, CLK2 (Homo sapiens, UniProt P49760)
# T18 construct: purchased DiscoveRx Corporation (KinomeScan)
# Outline: as §1
# RIPK2 = molecular target: T19, RIPK2 (Homo sapiens, UniProt O43353)
# T19 construct: purchased DiscoveRx Corporation
# Outline: as §1
# ERK8 = molecular target: T20, ERK8 (Homo sapiens, UniProt Q8TD08)
# T20 construct: purchased DiscoveRx Corporation (KinomeScan)
# Outline: as §1
# LTK = molecular target: T21, LTK (Homo sapiens, UniProt P29376)
# T21 construct: purchased DiscoveRx Corporation (KinomeScan)
# Outline: as §1
# CSNK1D = molecular target: T22, CSNK1D (Homo sapiens, UniProt P48730)
# T22 construct: purchased DiscoveRx Corporation (KinomeScan)
# Outline: as §1
# ULK2 = molecular target: T23, ULK2 (Homo sapiens, UniProt Q8IYT8)
# T23 construct: purchased DiscoveRx Corporation (KinomeScan service)
# Outline: as §1
# CDK7 = molecular target: T24, CDK7 (Homo sapiens, UniProt P50613)
# T24 construct: purchased DiscoveRx Corporation (KinomeScan)
# T24 sequence (P50613 whole entry): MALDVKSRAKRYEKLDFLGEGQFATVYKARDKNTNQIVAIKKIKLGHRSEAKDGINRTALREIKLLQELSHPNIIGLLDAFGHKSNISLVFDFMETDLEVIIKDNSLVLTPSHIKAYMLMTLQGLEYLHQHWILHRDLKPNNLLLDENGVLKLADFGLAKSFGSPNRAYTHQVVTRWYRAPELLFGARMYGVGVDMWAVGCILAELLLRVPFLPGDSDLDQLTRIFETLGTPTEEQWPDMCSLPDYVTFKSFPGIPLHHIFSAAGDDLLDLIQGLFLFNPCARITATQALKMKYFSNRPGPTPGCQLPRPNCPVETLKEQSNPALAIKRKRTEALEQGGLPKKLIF
# Outline: as §1
# EPHB1 = molecular target: T25, EPHB1 (Homo sapiens, UniProt P54762)
# T25 construct: purchased DiscoveRx Corporation (KinomeScan)
# Outline: as §1
# GRK7 = molecular target: T26, GRK7 (Homo sapiens, UniProt Q8WTQ7)
# T26 construct: purchased DiscoveRx Corporation (KinomeScan)
# Outline: as §1
# CSNK1G2 = molecular target: T27, CSNK1G2 (Homo sapiens, UniProt P78368)
# T27 construct: purchased DiscoveRx Corporation (KinomeScan)
# Outline: as §1
# MEK5 = molecular target: T28, MEK5 (Homo sapiens, UniProt Q13163)
# T28 construct: purchased DiscoveRx Corporation (KinomeScan)
# Outline: as §1
# STK33 = molecular target: T29, STK33 (Homo sapiens, UniProt Q9BYT3)
# T29 construct: purchased DiscoveRx Corporation (KinomeScan)
# Outline: as §1
# DDR2 = molecular target: T30, DDR2 (Homo sapiens, UniProt Q16832)
# T30 construct: purchased DiscoveRx Corporation (KinomeScan)
# T30 sequence (Q16832 22-855): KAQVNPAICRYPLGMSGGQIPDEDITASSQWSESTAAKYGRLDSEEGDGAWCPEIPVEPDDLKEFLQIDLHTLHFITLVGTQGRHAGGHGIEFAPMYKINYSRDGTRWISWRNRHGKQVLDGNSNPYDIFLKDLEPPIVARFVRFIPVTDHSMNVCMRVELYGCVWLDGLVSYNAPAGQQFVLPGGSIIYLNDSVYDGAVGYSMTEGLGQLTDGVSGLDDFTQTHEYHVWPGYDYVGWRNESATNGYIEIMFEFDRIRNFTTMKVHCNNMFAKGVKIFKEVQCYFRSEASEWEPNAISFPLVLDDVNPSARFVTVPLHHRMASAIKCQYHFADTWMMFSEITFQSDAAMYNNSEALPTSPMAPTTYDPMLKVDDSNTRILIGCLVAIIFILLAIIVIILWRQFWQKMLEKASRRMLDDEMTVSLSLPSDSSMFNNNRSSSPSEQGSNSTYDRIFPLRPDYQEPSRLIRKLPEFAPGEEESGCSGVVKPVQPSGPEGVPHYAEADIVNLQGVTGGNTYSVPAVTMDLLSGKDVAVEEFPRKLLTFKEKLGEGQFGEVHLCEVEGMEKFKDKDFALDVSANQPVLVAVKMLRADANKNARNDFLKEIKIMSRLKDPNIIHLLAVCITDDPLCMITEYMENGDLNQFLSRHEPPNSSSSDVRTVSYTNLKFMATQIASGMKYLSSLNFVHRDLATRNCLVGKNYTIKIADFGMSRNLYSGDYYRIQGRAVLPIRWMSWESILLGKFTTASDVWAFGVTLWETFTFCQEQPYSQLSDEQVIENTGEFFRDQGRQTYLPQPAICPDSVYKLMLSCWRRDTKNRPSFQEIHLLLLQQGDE
# Outline: as §1
# RAF1 = molecular target: T31, RAF1 (Homo sapiens, UniProt P04049)
# T31 construct: purchased DiscoveRx Corporation
# Outline: as §1
# FAK = molecular target: T32, FAK (Homo sapiens, UniProt Q05397)
# T32 construct: purchased DiscoveRx Corporation (KinomeScan)
# Outline: as §1
# FRK = molecular target: T33, FRK (Homo sapiens, UniProt P42685)
# T33 construct: purchased DiscoveRx Corporation (KinomeScan)
# Outline: as §1
# RET (M918T) = molecular target: T34, RET (M918T) (Homo sapiens, UniProt P07949, M918T)
# T34 construct: purchased DiscoveRx Corporation
# Outline: as §1
# MAST1 = molecular target: T35, MAST1 (Homo sapiens, UniProt Q9Y2H9)
# T35 construct: purchased DiscoveRx Corporation (KinomeScan)
# Outline: as §1
# T1 sequence (Q12851 whole entry): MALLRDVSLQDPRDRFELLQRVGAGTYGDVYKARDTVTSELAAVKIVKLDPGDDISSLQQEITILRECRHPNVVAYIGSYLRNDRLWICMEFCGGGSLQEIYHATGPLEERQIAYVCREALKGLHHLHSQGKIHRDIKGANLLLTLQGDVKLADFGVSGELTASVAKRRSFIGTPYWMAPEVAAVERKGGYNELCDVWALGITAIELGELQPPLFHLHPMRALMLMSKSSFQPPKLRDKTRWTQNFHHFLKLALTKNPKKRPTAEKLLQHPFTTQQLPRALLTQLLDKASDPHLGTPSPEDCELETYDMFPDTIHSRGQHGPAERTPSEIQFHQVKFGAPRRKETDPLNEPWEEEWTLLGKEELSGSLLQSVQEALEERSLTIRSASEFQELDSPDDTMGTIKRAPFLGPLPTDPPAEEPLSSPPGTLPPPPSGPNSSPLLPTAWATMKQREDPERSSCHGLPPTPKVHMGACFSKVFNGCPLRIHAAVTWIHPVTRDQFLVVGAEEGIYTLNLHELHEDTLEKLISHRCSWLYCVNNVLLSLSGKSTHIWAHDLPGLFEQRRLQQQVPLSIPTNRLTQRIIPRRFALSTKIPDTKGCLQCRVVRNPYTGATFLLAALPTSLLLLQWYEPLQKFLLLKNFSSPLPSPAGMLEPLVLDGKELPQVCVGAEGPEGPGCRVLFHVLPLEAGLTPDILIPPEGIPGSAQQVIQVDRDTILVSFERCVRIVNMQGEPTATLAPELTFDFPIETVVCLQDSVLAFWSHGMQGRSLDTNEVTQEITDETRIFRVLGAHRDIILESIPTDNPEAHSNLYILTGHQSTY
smiles,measurement,setting,value
"CCOP(=O)(CN1CCC(COc2cc3nccc(Oc4ccc(NC(=O)C5(C(=O)Nc6ccc(F)cc6)CC5)cc4F)c3cc2OC)CC1)OCC [Example 10, N1-[4-[[7-[[1-(diethoxyphosphorylmethyl)-4-piperidinyl]methoxyl]-6-methoxyl-4-quinolyl]oxyl]-3-fluorophenyl]-N1′-(4-fluorophenyl)cyclopropane-1,1-dicarboxamide]",% Ctrl@1000 nM,MAP4K2,100 % Ctrl
same,% Ctrl@1000 nM,[1],83 % Ctrl
same,% Ctrl@1000 nM,RIPK1,99 % Ctrl
same,% Ctrl@1000 nM,ADCK3,67 % Ctrl
same,% Ctrl@1000 nM,CIT,100 % Ctrl
same,% Ctrl@1000 nM,[2],1.9 % Ctrl
same,% Ctrl@1000 nM,ANKK1,100 % Ctrl
same,% Ctrl@1000 nM,TAK1,75 % Ctrl
same,% Ctrl@1000 nM,TNIK,70 % Ctrl
same,% Ctrl@1000 nM,HIPK3,66 % Ctrl
same,% Ctrl@1000 nM,[3],100 % Ctrl
same,% Ctrl@1000 nM,[4],77 % Ctrl
same,% Ctrl@1000 nM,MST1,100 % Ctrl
same,% Ctrl@1000 nM,YSK4,1.7 % Ctrl
same,% Ctrl@1000 nM,MST2,100 % Ctrl
same,% Ctrl@1000 nM,KIT(D816H),63 % Ctrl
same,% Ctrl@1000 nM,AKT1,100 % Ctrl
same,% Ctrl@1000 nM,CLK2,78 % Ctrl
same,% Ctrl@1000 nM,RIPK2,30 % Ctrl
same,% Ctrl@1000 nM,ERK8,95 % Ctrl
same,% Ctrl@1000 nM,LTK,26 % Ctrl
same,% Ctrl@1000 nM,CSNK1D,100 % Ctrl
same,% Ctrl@1000 nM,ULK2,100 % Ctrl
same,% Ctrl@1000 nM,CDK7,15 % Ctrl
same,% Ctrl@1000 nM,EPHB1,4.6 % Ctrl
same,% Ctrl@1000 nM,GRK7,100 % Ctrl
same,% Ctrl@1000 nM,CSNK1G2,100 % Ctrl
same,% Ctrl@1000 nM,MEK5,0.25 % Ctrl
same,% Ctrl@1000 nM,STK33,46 % Ctrl
same,% Ctrl@1000 nM,DDR2,7.8 % Ctrl
same,% Ctrl@1000 nM,RAF1,100 % Ctrl
same,% Ctrl@1000 nM,FAK,51 % Ctrl
same,% Ctrl@1000 nM,FRK,8.8 % Ctrl
same,% Ctrl@1000 nM,RET (M918T),0.05 % Ctrl
same,% Ctrl@1000 nM,MAST1,100 % Ctrl
